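Each compound was tested at five concentrations against cells in 96-well plates for 48 hours. The concentration for 50% growth inhibition is given as GI50.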 Active and inactive are the calls of the source. Cut-off read from the data, not from the text of the source: active = GI50 up to about 1.1 µM and inactive = higher.
What was measured:
Test in all cases: NCI-60 cell line screen, 48 h
DU-145 = system: DU-145
CCRF-CEM = system: CCRF-CEM
UO-31 = system: UO-31
OVCAR-4 = system: OVCAR-4
SK-OV-3 = system: SK-OV-3
NCI-H23 = system: NCI-H23
PC-3 = system: PC-3
EKVX = system: EKVX
OVCAR-8 = system: OVCAR-8
OVCAR-3 = system: OVCAR-3
T47D = system: T47D
HOP-62 = system: HOP-62
BT-549 = system: BT-549
SN12C = system: SN12C
SNB-75 = system: SNB-75
IGROV-1 = system: IGROV-1
RPMI-8226 = system: RPMI-8226
786-0 = system: 786-0
HCT-15 = system: HCT-15
CAKI-1 = system: CAKI-1
RXF 393 = system: RXF 393
SW-620 = system: SW-620
NCI-H460 = system: NCI-H460
SNB-19 = system: SNB-19
A498 = system: A498
NCI-H226 = system: NCI-H226
UACC-62 = system: UACC-62
SK-MEL-5 = system: SK-MEL-5
HCT-116 = system: HCT-116
MOLT-4 = system: MOLT-4
ACHN = system: ACHN
HL-60 = system: HL-60
HCC 2998 = system: HCC 2998
SF-295 = system: SF-295
LOX IMVI = system: LOX IMVI
HT-29 = system: HT-29
COLO 205 = system: COLO 205
KM12 = system: KM12
MCF7 = system: MCF7
U-251 = system: U-251
Malme-3M = system: Malme-3M
MDA-MB-231 = system: MDA-MB-231
K562 = system: K562
SR = system: SR
HOP-92 = system: HOP-92
NCI/ADR-RES = system: NCI/ADR-RES
SF-268 = system: SF-268
TK-10 = system: TK-10
SK-MEL-28 = system: SK-MEL-28
Hs-578T = system: Hs-578T
MDA-MB-435 = system: MDA-MB-435
MDA-N = system: MDA-N
NCI-H522 = system: NCI-H522
SF-539 = system: SF-539
A549 = system: A549
OVCAR-5 = system: OVCAR-5
M14 = system: M14
UACC-257 = system: UACC-257
SK-MEL-2 = system: SK-MEL-2

Cn1c(=O)c2c(nc(N)n2C2OC(CO)C(O)C2O)n(C)c1=O (stereo unspecified)
GI50 (DU-145): > 100 µM (inactive) | GI50 (CCRF-CEM): > 100 µM (inactive) | GI50 (UO-31): > 100 µM (inactive) | GI50 (OVCAR-4): > 100 µM (inactive) | GI50 (SK-OV-3): > 100 µM (inactive) | GI50 (NCI-H23): > 100 µM (inactive) | GI50 (PC-3): > 100 µM (inactive) | GI50 (EKVX): > 100 µM (inactive) | GI50 (OVCAR-8): > 100 µM (inactive) | GI50 (OVCAR-3): > 100 µM (inactive) | GI50 (T47D): > 100 µM (inactive) | GI50 (HOP-62): > 100 µM (inactive) | GI50 (BT-549): > 100 µM (inactive) | GI50 (SN12C): > 100 µM (inactive) | GI50 (SNB-75): > 100 µM (inactive) | GI50 (IGROV-1): > 100 µM (inactive) | GI50 (RPMI-8226): > 100 µM (inactive) | GI50 (786-0): > 100 µM (inactive) | GI50 (HCT-15): > 100 µM | GI50 (CAKI-1): > 100 µM (inactive) | GI50 (RXF 393): > 100 µM (inactive) | GI50 (SW-620): > 100 µM (inactive) | GI50 (NCI-H460): > 100 µM (inactive) | GI50 (SNB-19): > 100 µM (inactive) | GI50 (A498): > 100 µM (inactive) | GI50 (NCI-H226): > 100 µM (inactive) | GI50 (UACC-62): > 100 µM (inactive) | GI50 (SK-MEL-5): > 100 µM (inactive) | GI50 (HCT-116): > 100 µM (inactive) | GI50 (MOLT-4): > 100 µM (inactive) | GI50 (ACHN): > 100 µM (inactive) | GI50 (HL-60): > 100 µM (inactive) | GI50 (HCC 2998): > 100 µM (inactive) | GI50 (SF-295): > 100 µM (inactive) | GI50 (LOX IMVI): > 100 µM (inactive) | GI50 (HT-29): > 100 µM (inactive) | GI50 (COLO 205): > 100 µM (inactive) | GI50 (KM12): > 100 µM (inactive) | GI50 (MCF7): > 100 µM (inactive) | GI50 (U-251): > 100 µM (inactive) | GI50 (Malme-3M): > 100 µM (inactive) | GI50 (MDA-MB-231): > 100 µM (inactive) | GI50 (K562): > 100 µM (inactive) | GI50 (SR): > 100 µM (inactive) | GI50 (HOP-92): 61.9 µM (inactive) | GI50 (NCI/ADR-RES): > 100 µM (inactive) | GI50 (SF-268): > 100 µM (inactive) | GI50 (TK-10): > 100 µM (inactive) | GI50 (SK-MEL-28): > 100 µM (inactive) | GI50 (Hs-578T): > 100 µM (inactive) | GI50 (MDA-MB-435): > 100 µM (inactive) | GI50 (MDA-N): > 100 µM (inactive) | GI50 (NCI-H522): > 100 µM (inactive) | GI50 (SF-539): > 100 µM (inactive) | GI50 (A549): > 100 µM (inactive) | GI50 (OVCAR-5): > 100 µM (inactive) | GI50 (M14): > 100 µM (inactive) | GI50 (UACC-257): > 100 µM (inactive)

Cc1sc2nc3n(c(=O)c2c1C)N=C(c1ccccc1)CS3
GI50 (DU-145): > 100 µM (inactive) | GI50 (CCRF-CEM): > 100 µM (inactive) | GI50 (UO-31): > 100 µM (inactive) | GI50 (OVCAR-4): > 100 µM (inactive) | GI50 (SK-OV-3): > 100 µM (inactive) | GI50 (NCI-H23): > 100 µM (inactive) | GI50 (PC-3): > 100 µM (inactive) | GI50 (EKVX): > 100 µM (inactive) | GI50 (OVCAR-8): > 100 µM (inactive) | GI50 (OVCAR-3): > 100 µM (inactive) | GI50 (T47D): > 100 µM (inactive) | GI50 (HOP-62): 48.3 µM (inactive) | GI50 (BT-549): > 100 µM (inactive) | GI50 (SN12C): > 100 µM (inactive) | GI50 (SNB-75): > 100 µM (inactive) | GI50 (IGROV-1): > 100 µM (inactive) | GI50 (RPMI-8226): > 100 µM (inactive) | GI50 (786-0): 47.5 µM (inactive) | GI50 (HCT-15): > 100 µM | GI50 (CAKI-1): > 100 µM (inactive) | GI50 (RXF 393): > 100 µM (inactive) | GI50 (SW-620): > 100 µM (inactive) | GI50 (NCI-H460): > 100 µM (inactive) | GI50 (A498): > 100 µM (inactive) | GI50 (NCI-H226): > 100 µM (inactive) | GI50 (UACC-62): > 100 µM (inactive) | GI50 (SK-MEL-5): > 100 µM (inactive) | GI50 (HCT-116): > 100 µM (inactive) | GI50 (MOLT-4): > 100 µM (inactive) | GI50 (ACHN): > 100 µM (inactive) | GI50 (HL-60): > 100 µM (inactive) | GI50 (HCC 2998): > 100 µM (inactive) | GI50 (SF-295): 45.4 µM (inactive) | GI50 (LOX IMVI): > 100 µM (inactive) | GI50 (HT-29): > 100 µM (inactive) | GI50 (COLO 205): > 100 µM (inactive) | GI50 (KM12): > 100 µM (inactive) | GI50 (MCF7): > 100 µM (inactive) | GI50 (U-251): > 100 µM (inactive) | GI50 (Malme-3M): > 100 µM (inactive) | GI50 (MDA-MB-231): > 100 µM (inactive) | GI50 (K562): > 100 µM (inactive) | GI50 (SR): > 100 µM (inactive) | GI50 (HOP-92): > 100 µM (inactive) | GI50 (NCI/ADR-RES): > 100 µM (inactive) | GI50 (SF-268): > 100 µM (inactive) | GI50 (TK-10): > 100 µM (inactive) | GI50 (SK-MEL-28): > 100 µM (inactive) | GI50 (Hs-578T): 37.5 µM (inactive) | GI50 (MDA-MB-435): > 100 µM (inactive) | GI50 (MDA-N): > 100 µM (inactive) | GI50 (NCI-H522): > 100 µM (inactive) | GI50 (SF-539): > 100 µM (inactive) | GI50 (A549): > 100 µM (inactive) | GI50 (OVCAR-5): > 100 µM (inactive) | GI50 (UACC-257): > 100 µM (inactive)

O=c1oc2cc(/N=C/c3ccccc3Cl)ccc2c2ccccc12
GI50 (DU-145): > 100 µM (inactive) | GI50 (CCRF-CEM): > 100 µM (inactive) | GI50 (UO-31): 40.1 µM (inactive) | GI50 (OVCAR-4): > 100 µM (inactive) | GI50 (NCI-H23): > 100 µM (inactive) | GI50 (PC-3): 98.6 µM (inactive) | GI50 (EKVX): 49.2 µM (inactive) | GI50 (OVCAR-8): > 100 µM (inactive) | GI50 (OVCAR-3): > 100 µM (inactive) | GI50 (T47D): > 100 µM (inactive) | GI50 (HOP-62): > 100 µM (inactive) | GI50 (BT-549): > 100 µM (inactive) | GI50 (SN12C): > 100 µM (inactive) | GI50 (SNB-75): > 100 µM (inactive) | GI50 (IGROV-1): > 100 µM (inactive) | GI50 (RPMI-8226): > 100 µM (inactive) | GI50 (786-0): > 100 µM (inactive) | GI50 (HCT-15): > 100 µM | GI50 (CAKI-1): > 100 µM (inactive) | GI50 (RXF 393): > 100 µM (inactive) | GI50 (SW-620): > 100 µM (inactive) | GI50 (NCI-H460): > 100 µM (inactive) | GI50 (SNB-19): 97.5 µM (inactive) | GI50 (A498): > 100 µM (inactive) | GI50 (NCI-H226): > 100 µM (inactive) | GI50 (UACC-62): 40.7 µM (inactive) | GI50 (SK-MEL-5): > 100 µM (inactive) | GI50 (HCT-116): 71.3 µM (inactive) | GI50 (MOLT-4): > 100 µM (inactive) | GI50 (ACHN): > 100 µM (inactive) | GI50 (HL-60): 57.1 µM (inactive) | GI50 (HCC 2998): > 100 µM (inactive) | GI50 (SF-295): > 100 µM (inactive) | GI50 (LOX IMVI): 87.3 µM (inactive) | GI50 (HT-29): > 100 µM (inactive) | GI50 (COLO 205): > 100 µM (inactive) | GI50 (KM12): > 100 µM (inactive) | GI50 (MCF7): 14.2 µM (inactive) | GI50 (U-251): > 100 µM (inactive) | GI50 (Malme-3M): > 100 µM (inactive) | GI50 (SK-MEL-2): > 100 µM (inactive) | GI50 (MDA-MB-231): > 100 µM (inactive) | GI50 (K562): 45.9 µM (inactive) | GI50 (SR): > 100 µM (inactive) | GI50 (HOP-92): > 100 µM (inactive) | GI50 (NCI/ADR-RES): > 100 µM (inactive) | GI50 (SF-268): 87.1 µM (inactive) | GI50 (SK-MEL-28): > 100 µM (inactive) | GI50 (Hs-578T): > 100 µM (inactive) | GI50 (MDA-MB-435): > 100 µM (inactive) | GI50 (MDA-N): > 100 µM (inactive) | GI50 (NCI-H522): > 100 µM (inactive) | GI50 (SF-539): > 100 µM (inactive) | GI50 (A549): > 100 µM (inactive) | GI50 (OVCAR-5): > 100 µM (inactive) | GI50 (M14): > 100 µM (inactive) | GI50 (UACC-257): > 100 µM (inactive)

— ChEMBL document CHEMBL1201862, “PubChem BioAssay data set” (2004)
